This note sets out measurements from patent US8309068B2, “Isolated polypeptides and methods of improving muscle strength” (Myostin Therapeutics Pty Ltd., priority 2006, dated 2012).

In one assay the test system is primary myoblasts. Nature of the assay: Myoblast chemotaxis assay, effect of recombinant myostatin. To be noted: recombinant myostatin at 2.5 μg/ml in control (CEE) medium; myoblasts from old (2 year old) mice. The class given is cell-based. How it is done: Primary myoblasts were cultured from the hind limb muscle of young (4 to 6 week old) or old (24 month old) mice, according to the published protocols (Allen et al., 1997; Partridge, 1997). Briefly, muscles were minced, and digested in 0.2% collagenase type 1A for 90 min. Cultures were enriched for myoblasts by pre-plating on uncoated plates for 3 hours. Myoblast cultures were maintained in growth media (GM) supplemented with 20% fetal calf serum (FCS), 10% HS and 1% CEE on 10% Matrigel coated plates, at 37° C./5% CO2. The extent of culture purity was assessed by flow cytometry analysis of MyoD expression after 48 hours in culture. Cells were harvested using trypsin, suspended at a concentration of 10^6 cells/200 μl and fixed overnight in 5 ml 70% ethanol at −20° C. Staining was performed for 30 min at room temperature using rabbit polyclonal anti-MyoD, 1:200 (Santa Cruz), followed by Alexa fluor 488 anti-rabbit conjugate, 1:500 (Molecular Probes). Analysis was carried out in duplicate with 10^4 cell events collected in each assay. Debris was excluded by gating on forward and side scatter profiles. Cells were analyzed by FACScan (Becton Dickinson). […]
For the chemotaxis assay of myoblasts, a first assay was carried out on myoblasts from 2 year old mice as follows. […] Migrated cells were counted on four representative fields per membrane and the average number plotted. […]

The subject of a further assay is p-FoxO1. Nature of the assay: In vitro cancer cachexia trial: p-FoxO1 Western blot in C2C12 myotubes. The class given is cell-based, murine. To be noted: 6 μg/mL recombinant Myostatin; 24 hour treatment; C2C12 myotubes. As to the method:
C2C12 cells were differentiated for 72 hours in differentiation media (DMEM+2% HS). Following this period of differentiation the myotubes were tested with recombinant myostatin at 6 μg/mL or a combination of both myostatin and 300 recombinant protein at 30, 60, 90 or 120 μg/mL for further 24 hours to determine if 300 can rescue myostatin-mediated muscle wasting in vitro. Gene expression changes of intermediate signalling molecules critical in myostatin-mediated cachexia were analysed. Therefore, protein was isolated from cells and Western blot analysis was performed to measure protein expression levels for p-FoxO1, which we have shown to be a critical signalling intermediates in Myostatin-mediated cachexia (McFarlane et al 2006).
A general note: A western blot detects proteins with antibodies after separation by electrophoresis.

In the next assay the test system is C2C12 myoblasts. Nature of the assay: C2C12 myoblast proliferation assay (methylene blue endpoint). The following applies: recombinant myostatin at 2.25 μg/ml in control medium. The class given is cell-based, murine. How it is done: A polypeptide of the invention, or a fragment, variant or derivative thereof has the biological function of antagonising myostatin activity. To determine whether a polypeptide of the invention, or a fragment, variant or derivative thereof, is able to antagonise myostatin activity, such activity can be tested by growing myoblasts in the presence or absence (control) of a candidate polypeptide of the invention. […]
The myoblast proliferation assay was carried out in uncoated 96-well microtitre plates. C2C12 cultures were seeded at 1000 cells/well. Following a 16-hour attachment period, test media containing either recombinant wild type myostatin or different myostatin antagonists were added and cells were incubated for a further 48 or 72 hour period. For competition assay, wild type myostatin was competed with different concentrations of myostatin antagonists prior to the addition into the media. After the incubation period, proliferation was assessed using methylene blue photometric endpoint assay as previously described (Thomas et al, 2000).

On to “recombinant myostatin: recombinant wild type myostatin (GDF-8), negative regulator of muscle growth, added to inhibit myoblasts [reference compound]”, for which the “decrease in the number of migrated myoblasts” value with primary myoblasts is reported as “approximately 78%”. Moreover, in the assay on p-FoxO1, the “p-FoxO1 expression (normalised to total FoxO1)” value was “down-regulation”. Moreover, the “inhibition of myoblast proliferation” value with C2C12 myoblasts (after 48 hours) is given as 25%; in the assay with C2C12 myoblasts (after 72 hours) it was “about 10%”.
